Measured values published in publication PMC5984089, “FBXW7 regulates DISC1 stability via the ubiquitin-proteosome system” (Molecular Psychiatry, 2017).
Residues, ends and D or L forms follow the SMILES beside them. *: point of attachment. Cbz = O=C(OCc1ccccc1)*

System: DISC1, HEK293 cells
Experiment: Endogenous DISC1 protein level in HEK293 cells, western blot
Type: cell-based, human
Settings: MG132 10–60 μM, 1 h, Figure 1b
Method: HEK293 cells were sourced from ATCC (CRL-1573) and cultured as described in the manufacturer’s protocol. DMEM (SIGMA) supplemented with 10% fetal bovine serum, 2 mM L-glutamine, […] penicillin-streptomycin at 37 °C in a humidified atmosphere of 5% CO2. The cells were passaged at about 80% confluency. Cells were transfected with plasmid DNA using polyfect transfection reagent (Qiagen) according to the manufacturer’s instructions. HEK293 cells were treated with the pharmacological agents cycloheximide (C7698) and MG132 (M7449) (Sigma-Aldrich) or DISC1 disruptor peptides (custom synthesized by Severn Biotech) as described in the text.
Briefly, detergent-soluble proteins were isolated from cells by disruption in lysis buffer 20 mM Tris-HCl (pH 7.5), 150 mM NaCl, 1 mM Na2EDTA, 1 mM EGTA, 1% triton, 2.5 mM sodium pyrophosphate, 1 mM β-glycerophosphate, 1 mM Na3VO4, 1 μg ml^–1 leupeptin, 10 mM DTT with Roche protease inhibitor, phosSTOP (Roche, 04906837001). Detergent-insoluble proteins were removed by centrifugation at 10 000 g for 10 min, and the soluble fraction was retained. Cell lysates were adjusted to equal protein amount (1 μg μl^–1) using cell lysis buffer. Cell lysates normalized for the protein concentration were incubated with mouse IgG (Millipore, 12487) Protein A agarose beads for 2 h at 4 °C. […] The complexes were analyzed on SDS PAGE. […]

CC(C)C[C@@H](C=O)NC(=O)[C@H](CC(C)C)NC(=O)[C@H](CC(C)C)NC(=O)OCc1ccccc1 [MG132] (Cbz-Leu-Leu-Leu-aldehyde)
endogenous DISC1 level after MG132: elevated
